The values that follow come from patent US20240116951A1, “HETEROCYCLIC COMPOUNDS AND USES THEREOF” (Kumquat Biosciences Inc., priority 2022, published 2024).

Common to all, as to assay type: binding
The target in one test is T1, KRAS G12S (Homo sapiens, UniProt P01116, G12S).
T1 construct: made in house; host or cells: E. coli, e.g. BL21 (DE3)
Put plainly: HTRF assay of K-Ras G12S interaction with SOS1 (PPI-HTRF). To be noted: 5 nM KRAS G12S, read-out: PPI-HTRF-5 nM KRAS G12S. Summed up:
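HTRF on GST-K-Ras/His-hSOS1 was measured after ≥10 min in pH 7.4 HEPES buffer. IC50 values were derived from the ratiometric emission signal.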

A further test deals with T2, KRAS WT (Homo sapiens, UniProt P01116).
T2 construct: made in house; host or cells: E. coli, e.g. BL21 (DE3)
T2 sequence (P01116 1-188 isoform P01116-2): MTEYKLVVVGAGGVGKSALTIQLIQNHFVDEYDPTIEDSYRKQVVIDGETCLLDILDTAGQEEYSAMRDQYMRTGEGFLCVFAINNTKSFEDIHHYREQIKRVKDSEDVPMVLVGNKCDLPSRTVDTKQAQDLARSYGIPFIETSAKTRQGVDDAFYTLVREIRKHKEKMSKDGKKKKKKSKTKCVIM
Put plainly: HTRF assay of wildtype K-Ras interaction with SOS1 (PPI-HTRF). To be noted: HTRF, 5 nM KRAS WT; read-out: PPI-HTRF-5 nM KRAS WT. An excerpt: (§1) This assay can be also used to assess a selective inhibition or reduction of signaling output of a mutant Ras protein relative to a wildtype, or relative to a different mutant Ras protein. For example, the equilibrium interaction of wildtype Kras or K-Ras mutant (e.g., wildtype or a mutant thereof including those mentioned in Example 4) with SOS1 (e.g., hSOS1) can be assessed as a proxy or an indication for a subject compound's ability to bind and inhibit Ras protein. HTRF assay detects from (i) a fluorescence resonance energy transfer (FRET) donor (e.g., antiGST-Europium) that is bound to GST-tagged K-Ras mutant to (ii) a FRET acceptor (e.g., anti-6His-XL665) bound to a His-tagged hSOS1.
(§2) The assay buffer can contain ˜5 mM HEPES pH 7.4, ˜150 mM NaCl, ˜1 mM DTT, 0.05% BSA and 0.0025% (v/v) Igepal. A Ras working solution is prepared in an assay buffer containing typically a suitable amount of the protein construct (e.g., GST-tagged K-Ras mutant) and the FRET donor (e.g., antiGST-Eu(K) from Cisbio, France). A SOS1 working solution is prepared in an assay buffer containing suitable amount of the protein construct (e.g., His-hSOS1) and the FRET acceptor (e.g., anti-6His-XL665 from Cisbio, France). A suitable amount of the protein construct will depend on the range of activity or range of IC50 values being detected or under investigation. For detecting IC50 within a range of 500 nM, the protein constructs of the same range of molarity can be utilized. […] A fixed volume of DMSO with or without test compound is transferred into a 384-well plate. Ras working solution is added to all wells of the test plate. SOS1 working solution is added to all wells except for those that are subsequently filled the inhibitor control solution. Upon incubation for about 10 minutes or longer, the fluorescence is measured with a M1000Pro plate reader (Tecan) using HTRF detection (excitation 337 nm, emission 1: 620 nm, emission 2: 665 nm). Compounds are tested in duplicates at different concentrations (for example, 10 μM, 2.5 μM, 0.63 μM, 0.16 μM, 0.04 μM, 0.01 μM test compound). The ratiometric data (i.e., emission 2 divided by emission 1) is used to calculate IC50 values against Ras using GraphPad Prism (GraphPad software). Following this general procedure, samples were tested with or without a subject compound disclosed herein including compounds exemplified in Table 1 to assess their abilities to inhibit a mutant K-Ras relative to another mutant K-Ras or wildtype K-Ras. Signaling output measured in terms of IC50 values can be obtained, a ratio of IC50 against one mutant relative to another mutant can be calculated. For instance, a selective reduction of K-Ras G12D signaling output can be evidenced by a ratio greater than one. In particular, a selective reduction of K-Ras G12D signaling relative to K-Ras WT signaling is evidenced as the ratio of IC50 (against K-Ras WT) to IC50 (against K-Ras G12D) is greater than 1.

In another test the target is T3, KRAS G12D (Homo sapiens, UniProt P01116, G12D).
T3 construct: made in house; host or cells: E. coli, e.g. BL21 (DE3)
T3 sequence (P01116 1-188 isoform P01116-2 G12D): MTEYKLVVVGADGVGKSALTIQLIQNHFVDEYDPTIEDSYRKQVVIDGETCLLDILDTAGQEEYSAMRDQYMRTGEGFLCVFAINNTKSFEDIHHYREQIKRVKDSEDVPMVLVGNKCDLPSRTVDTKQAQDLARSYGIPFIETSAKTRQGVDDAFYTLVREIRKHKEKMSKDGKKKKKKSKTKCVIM
Put plainly: HTRF assay of K-Ras G12D interaction with SOS1 (PPI-HTRF). To be noted: HTRF, 5 nM KRAS G12D; read-out: PPI-HTRF-5 nM KRAS G12D.
Source text: as §1, §2

Structures are written as SMILES.

T1 sequence (P01116 1-188 isoform P01116-2 G12S): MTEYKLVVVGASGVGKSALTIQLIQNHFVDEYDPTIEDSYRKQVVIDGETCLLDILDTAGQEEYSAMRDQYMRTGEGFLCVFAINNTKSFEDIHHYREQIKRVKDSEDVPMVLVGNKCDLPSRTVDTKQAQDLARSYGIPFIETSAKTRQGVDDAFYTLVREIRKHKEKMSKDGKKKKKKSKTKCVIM

Turning to `N#Cc1c(N)sc2c(F)ccc(-c3c(Cl)cc4c(N5CCC6(CC5)CCN6C(=O)C5CC5(F)F)nc(OC[C@@]56CCCN5C[C@H](F)C6)nc4c3F)c12` (stereo partly drawn) [Compound 342, 2-amino-4-(6-chloro-4-(1-(2,2-difluorocyclopropane-1-carbonyl)-1,7-diazaspiro[3.5]nonan-7-yl)-8-fluoro-2-(((2R,7aS)-2-fluorotetrahydro-1H-pyrrolizin-7a(5H)-yl)methoxy)quinazolin-7-yl)-7-fluorobenzo[b]thiophene-3-carbonitrile], the IC50 at KRAS G12S, on KRAS WT and at KRAS G12D was less than 5 µM each time.
Take `N#Cc1c(N)sc2c(F)ccc(-c3c(Cl)cc4c(N5CC6(CCN6C(=O)n6cncn6)CC5COC(F)F)nc(OC[C@@]56CCCN5C[C@H](F)C6)nc4c3F)c12` (stereo partly drawn) [Compound 326, 2-amino-4-(6-chloro-4-(7-((difluoromethoxy)methyl)-1-(1H-1,2,4-triazole-1-carbonyl)-1,6-diazaspiro[3.4]octan-6-yl)-8-fluoro-2-(((2R,7aS)-2-fluorotetrahydro-1H-pyrrolizin-7a(5H)-yl)methoxy)quinazolin-7-yl)-7-fluorobenzo[b]thiophene-3-carbonitrile]: the IC50 at KRAS G12S, on KRAS WT and on KRAS G12D was less than 5 µM in each case.
As to `N#Cc1c(N)sc2c(F)ccc(-c3c(Cl)cc4c(N5CCC6(CCN6C(=O)C(Cl)Cl)C5)nc(OC[C@@]56CCCN5C[C@H](F)C6)nc4c3F)c12` (stereo partly drawn) [Compound 347, 2-amino-4-(6-chloro-4-(1-(2,2-dichloroacetyl)-1,6-diazaspiro[3.4]octan-6-yl)-8-fluoro-2-(((2R,7aS)-2-fluorotetrahydro-1H-pyrrolizin-7a(5H)-yl)methoxy)quinazolin-7-yl)-7-fluorobenzo[b]thiophene-3-carbonitrile], the IC50 at KRAS G12S, at KRAS WT and on KRAS G12D was less than 5 µM in each case.
Take `N#Cc1c(N)sc2c(F)ccc(-c3c(Cl)cc4c(N5CCC6(CCN6C(=O)n6cnc(C(F)F)n6)C5)nc(OC[C@@]56CCCN5C[C@H](F)C6)nc4c3F)c12` (stereo partly drawn) [Compound 215, 2-amino-4-(6-chloro-4-(1-(3-(difluoromethyl)-1H-1,2,4-triazole-1-carbonyl)-1,6-diazaspiro[3.4]octan-6-yl)-8-fluoro-2-(((2R,7aS)-2-fluorotetrahydro-1H-pyrrolizin-7a(5H)-yl)methoxy)quinazolin-7-yl)-7-fluorobenzo[b]thiophene-3-carbonitrile]: the IC50 on KRAS G12S, at KRAS WT and on KRAS G12D was less than 5 µM each time.
Take `C#Cc1c(F)ccc2cc(O)cc(-c3ncc4c(N5CCC6(CCN6C(=O)n6cncn6)C5)nc(O[C@@H](C)[C@@H]5CCCN5C)nc4c3F)c12` (stereo partly drawn) [Compound 256, (6-(7-(8-ethynyl-7-fluoro-3-hydroxynaphthalen-1-yl)-8-fluoro-2-((S)-1-((S)-1-methylpyrrolidin-2-yl)ethoxy)pyrido[4,3-d]pyrimidin-4-yl)-1,6-diazaspiro[3.4]octan-1-yl)(1H-1,2,4-triazol-1-yl)methanone]: the IC50 on KRAS G12S is less than 5 µM; at KRAS WT, greater than 5 µM; on KRAS G12D it was greater than 5 µM.
Turning to `C[C@H](Oc1nc(N2CCC3(CCN3C(=O)n3cncn3)C2)c2cc(Cl)c(-c3ccc(F)c4sc(N)c(C#N)c34)c(F)c2n1)[C@@H]1CCCN1C` (stereo partly drawn) [Compound 207, 4-(4-(1-(1H-1,2,4-triazole-1-carbonyl)-1,6-diazaspiro[3.4]octan-6-yl)-6-chloro-8-fluoro-2-((S)-1-((S)-1-methylpyrrolidin-2-yl)ethoxy)quinazolin-7-yl)-2-amino-7-fluorobenzo[b]thiophene-3-carbonitrile], the IC50 at KRAS G12S, at KRAS WT and at KRAS G12D was less than 5 µM throughout.
For the compound `N#Cc1c(N)sc2c(F)ccc(-c3c(Cl)cc4c(N5CC6(CCN6C(=O)n6cncn6)C5)nc(OC[C@@]56CCCN5C[C@H](F)C6)nc4c3F)c12` [Compound 238, 4-(4-(1-(1H-1,2,4-triazole-1-carbonyl)-1,6-diazaspiro[3.3]heptan-6-yl)-6-chloro-8-fluoro-2-(((2R,7aS)-2-fluorotetrahydro-1H-pyrrolizin-7a(5H)-yl)methoxy)quinazolin-7-yl)-2-amino-7-fluorobenzo[b]thiophene-3-carbonitrile], the IC50 at KRAS G12S, on KRAS WT and at KRAS G12D was less than 5 µM in each case.
Take `Nc1nc2c(-c3c(Cl)cc4c(N5CC6(CCN6)C5)nc(OC[C@@]56CCCN5C[C@H](F)C6)nc4c3F)ccc(F)c2s1` [Compound 259, 4-(6-chloro-8-fluoro-2-(((2R,7aS)-2-fluorotetrahydro-1H-pyrrolizin-7a(5H)-yl)methoxy)-4-(1,6-diazaspiro[3.3]heptan-6-yl)quinazolin-7-yl)-7-fluorobenzo[d]thiazol-2-amine]: the IC50 at KRAS G12S, at KRAS WT and at KRAS G12D was less than 5 µM throughout.
Take `N#Cc1c(N)sc2c(F)ccc(-c3c(Cl)cc4c(N5CCC6(COCCN6C#N)C5)nc(OC[C@@]56CCCN5C[C@H](F)C6)nc4c3F)c12` (stereo partly drawn) [Compound 302, 2-(7-(2-amino-3-cyano-7-fluorobenzo[b]thiophen-4-yl)-6-chloro-8-fluoro-2-(((2R,7aS)-2-fluorotetrahydro-1H-pyrrolizin-7a(5H)-yl)methoxy)quinazolin-4-yl)-9-oxa-2,6-diazaspiro[4.5]decane-6-carbonitrile]: the IC50 at KRAS G12S, at KRAS WT and on KRAS G12D was less than 5 µM each time.
For the compound `CN(C)C1CN(c2nc(N3CCC4(CCN4C(=O)n4cncn4)C3)c3cc(Cl)c(-c4ccc(F)c5sc(N)c(C#N)c45)c(F)c3n2)C1` (stereo not drawn) [Compound 203, 4-(4-(1-(1H-1,2,4-triazole-1-carbonyl)-1,6-diazaspiro[3.4]octan-6-yl)-6-chloro-2-(3-(dimethylamino)azetidin-1-yl)-8-fluoroquinazolin-7-yl)-2-amino-7-fluorobenzo[b]thiophene-3-carbonitrile], the IC50 at KRAS G12S is less than 5 µM; at KRAS WT, less than 5 µM; at KRAS G12D, greater than 5 µM.
As to `N#Cc1c(N)sc2c(F)ccc(-c3c(Cl)cc4c(N5CCC6(CCN6C(=O)n6cnc(C7CC7)n6)C5)nc(OC[C@@]56CCCN5C[C@H](F)C6)nc4c3F)c12` (stereo partly drawn) [Compound 308, 2-amino-4-(6-chloro-4-(1-(3-cyclopropyl-1H-1,2,4-triazole-1-carbonyl)-1,6-diazaspiro[3.4]octan-6-yl)-8-fluoro-2-(((2R,7aS)-2-fluorotetrahydro-1H-pyrrolizin-7a(5H)-yl)methoxy)quinazolin-7-yl)-7-fluorobenzo[b]thiophene-3-carbonitrile], the IC50 at KRAS G12S, at KRAS WT and on KRAS G12D was less than 5 µM in each case.
Regarding `C[C@H](Oc1nc(N2CCC3(CCN3C(=O)[C@@H]3C[C@H]3C#N)C2)c2cc(Cl)c(-c3ccc(F)c4sc(N)c(C#N)c34)c(F)c2n1)[C@@H]1CCCN1C` (stereo partly drawn) [Compound 206, 2-amino-4-(6-chloro-4-(1-((1R,2R)-2-cyanocyclopropane-1-carbonyl)-1,6-diazaspiro[3.4]octan-6-yl)-8-fluoro-2-((S)-1-((S)-1-methylpyrrolidin-2-yl)ethoxy)quinazolin-7-yl)-7-fluorobenzo[b]thiophene-3-carbonitrile], the IC50 on KRAS G12S, at KRAS WT and on KRAS G12D was less than 5 µM in each case.
